Assays:
[1] = target: intracellular GCN2 (phosphorylation of the GCN2 substrate eIF2α) (Homo sapiens (Human), UniProt Q9P2K8); assay: GCN2 Cellular Inhibition Assay (AlphaScreen SureFire P-eIF2α Ser51, borrelidin-treated U2OS cells); assay type: cell-based; details: 10 μM borrelidin, 1 h, phosphorylated eIF2α Ser51, read-out: GCN2 Biomarker (IC50)
How it was run: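 Phospho-eIF2α (Ser51) measured by AlphaScreen SureFire in lysates of U2OS cells stimulated 1 h at 37 °C with 10 μM borrelidin alongside compound, 4-fold dilutions from 40 μM. Inhibition expressed as percent relative to borrelidin-alone controls.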

GCN2 kinase = GCN2 kinase (Homo sapiens (Human), UniProt Q9P2K8); assay: GCN2 Enzyme Inhibition Assay (Transcreener ADP2 fluorescence polarization); assay type: biochemical; details: 280 μM ATP, 200 μM (RS)7 peptide, 4 nM GCN2, 25° C.; for Ki: Ki(app)
How it was run: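 At 25 °C, GCN2 kinase (typical final concentration 4 nM) and (RS)7 peptide in Tris-HCl pH 7.5 buffer with MgCl2, NaCl and DTT were preincubated with compound for 10 min, then ATP was added for a 1 h reaction. ADP was read by FP with antibody/Alexa633 tracer. Non-linear tight-binding analysis gave IC50 and apparent Ki.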

Chain of intracellular GCN2 (phosphorylation of the GCN2 substrate eIF2α) (Q9P2K8 whole entry): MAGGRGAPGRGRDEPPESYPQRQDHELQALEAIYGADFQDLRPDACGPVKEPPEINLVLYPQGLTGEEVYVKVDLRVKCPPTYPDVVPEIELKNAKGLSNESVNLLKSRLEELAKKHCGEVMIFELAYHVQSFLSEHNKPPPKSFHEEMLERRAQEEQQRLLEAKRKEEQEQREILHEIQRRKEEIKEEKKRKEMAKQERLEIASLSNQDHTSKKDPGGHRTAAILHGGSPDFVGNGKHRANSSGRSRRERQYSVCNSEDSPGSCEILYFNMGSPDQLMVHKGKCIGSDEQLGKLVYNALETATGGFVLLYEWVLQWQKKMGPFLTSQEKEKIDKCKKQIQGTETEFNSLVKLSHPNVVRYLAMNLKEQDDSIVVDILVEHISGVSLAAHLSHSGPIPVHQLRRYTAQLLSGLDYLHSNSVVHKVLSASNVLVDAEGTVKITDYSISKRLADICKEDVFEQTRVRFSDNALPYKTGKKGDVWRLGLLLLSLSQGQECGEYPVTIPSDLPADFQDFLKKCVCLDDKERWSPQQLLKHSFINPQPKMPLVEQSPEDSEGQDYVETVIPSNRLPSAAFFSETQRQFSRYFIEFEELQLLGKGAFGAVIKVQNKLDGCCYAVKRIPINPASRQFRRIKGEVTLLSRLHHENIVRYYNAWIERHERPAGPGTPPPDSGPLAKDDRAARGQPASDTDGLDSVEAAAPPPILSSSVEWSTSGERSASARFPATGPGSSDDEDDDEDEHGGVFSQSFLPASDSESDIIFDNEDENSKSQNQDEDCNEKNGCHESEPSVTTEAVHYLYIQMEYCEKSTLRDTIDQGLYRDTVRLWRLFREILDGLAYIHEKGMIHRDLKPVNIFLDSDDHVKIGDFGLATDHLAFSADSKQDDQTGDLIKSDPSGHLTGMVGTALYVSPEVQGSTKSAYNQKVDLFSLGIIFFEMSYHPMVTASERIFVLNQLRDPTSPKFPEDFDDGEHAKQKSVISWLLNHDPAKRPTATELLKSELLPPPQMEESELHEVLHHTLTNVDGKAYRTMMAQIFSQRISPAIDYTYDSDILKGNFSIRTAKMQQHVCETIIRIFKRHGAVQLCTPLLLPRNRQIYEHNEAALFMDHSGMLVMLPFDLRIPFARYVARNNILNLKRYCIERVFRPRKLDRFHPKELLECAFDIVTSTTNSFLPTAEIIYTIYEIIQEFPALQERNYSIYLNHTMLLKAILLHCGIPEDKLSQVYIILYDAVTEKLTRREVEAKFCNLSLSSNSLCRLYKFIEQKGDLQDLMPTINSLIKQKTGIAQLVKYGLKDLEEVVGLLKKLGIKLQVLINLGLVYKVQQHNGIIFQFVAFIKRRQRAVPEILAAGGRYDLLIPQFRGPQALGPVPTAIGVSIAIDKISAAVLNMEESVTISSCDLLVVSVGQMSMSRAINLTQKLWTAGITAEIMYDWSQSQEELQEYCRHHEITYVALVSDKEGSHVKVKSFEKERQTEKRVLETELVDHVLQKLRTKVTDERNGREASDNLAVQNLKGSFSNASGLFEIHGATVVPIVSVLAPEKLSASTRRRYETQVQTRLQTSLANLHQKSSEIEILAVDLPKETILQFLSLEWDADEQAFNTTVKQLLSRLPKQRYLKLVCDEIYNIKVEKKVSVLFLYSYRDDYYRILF
Chain of GCN2 kinase (Q9P2K8 whole entry): as above

CS(=O)(=O)N1CC2(CCCN(c3ccnc(-c4cnc5ccc(C(F)(F)F)cn45)n3)C2)C1 [I-448, 2-(methylsulfonyl)-6-(2-(6-(trifluoromethyl)imidazo[1,2-a]pyridin-3-yl)pyrimidin-4-yl)-2,6-diazaspiro[3.5]nonane]
IC50 [1]: 500 to 5000 nM | IC50 (GCN2 kinase): 10 to 100 nM

FC(F)(F)c1ccc2ncc(-c3nccc(N4CCN(Cc5cnc[nH]5)C(c5cn[nH]c5)C4)n3)n2c1 (centres unmarked) [I-385, 3-(4-(4-((1H-imidazol-5-yl)methyl)-3-(1H-pyrazol-4-yl)piperazin-1-yl)pyrimidin-2-yl)-6-(trifluoromethyl)imidazo[1,2-a]pyridine]
IC50 [1]: 500 to 5000 nM | IC50 (GCN2 kinase): < 10 nM

NC(=O)C1CN(c2ccnc(-c3cnc4cc(F)c(Cl)cn34)n2)CCN1C1CC1 (centres unmarked) [I-389, 4-(2-(6-chloro-7-fluoroimidazo[1,2-a]pyridin-3-yl)pyrimidin-4-yl)-1-cyclopropylpiperazine-2-carboxamide]
IC50 [1]: 500 to 5000 nM | IC50 (GCN2 kinase): 10 to 100 nM

CC1(C)CN(c2ccnc(-c3cnc4ccc(C(F)(F)F)cn34)n2)CC2(CN(S(C)(=O)=O)C2)O1 [I-304, 6,6-dimethyl-2-(methylsulfonyl)-8-(2-(6-(trifluoromethyl)imidazo[1,2-a]pyridin-3-yl)pyrimidin-4-yl)-5-oxa-2,8-diazaspiro[3.5]nonane]
IC50 [1]: 500 to 5000 nM | IC50 (GCN2 kinase): 10 to 100 nM

FC(F)(F)c1ccc2ncc(-c3ccnc(N4CCN(C[C@@H]5CCCOC5)[C@H](c5cn[nH]c5)C4)n3)n2c1 [I-544, 3-(2-((R)-3-(1H-pyrazol-4-yl)-4-(((S)-tetrahydro-2H-pyran-3-yl)methyl)piperazin-1-yl)pyrimidin-4-yl)-6-(trifluoromethyl)imidazo[1,2-a]pyridine]
IC50 [1]: < 500 nM | IC50 (GCN2 kinase): < 10 nM

NS(=O)(=O)C1CCCN(c2ccnc(-c3cnc4ccc(C(F)(F)F)cn34)n2)C1 (centres unmarked) [I-242, 1-(2-(6-(trifluoromethyl)imidazo[1,2-a]pyridin-3-yl)pyrimidin-4-yl)piperidine-3-sulfonamide]
IC50 [1]: > 5000 nM | IC50 (GCN2 kinase): 10 to 100 nM

C[C@H]1CN(c2nccc(-c3cnc4ccc(Cl)cn34)n2)C[C@H](c2cn[nH]c2)O1 [I-246, (2S,6S)-4-(4-(6-chloroimidazo[1,2-a]pyridin-3-yl)pyrimidin-2-yl)-2-methyl-6-(1H-pyrazol-4-yl)morpholine]
IC50 [1]: 500 to 5000 nM | IC50 (GCN2 kinase): 10 to 100 nM

FC(F)(F)c1ccc2ncc(-c3nccc(N4CCN(C5CC5)C(c5cn[nH]c5)C4)n3)n2c1 (stereo in doubt) [I-503, (R)-3-(4-(4-cyclopropyl-3-(1H-pyrazol-4-yl)piperazin-1-yl)pyrimidin-2-yl)-6-(trifluoromethyl)imidazo[1,2-a]pyridine]
IC50 [1]: < 500 nM | IC50 (GCN2 kinase): 10 to 100 nM

O=C(CO)N1CCN(c2ccnc(-c3cnc4ccc(C(F)(F)F)cn34)n2)CC1c1cn[nH]c1 (centres unmarked) [I-421, 1-(2-(1H-pyrazol-4-yl)-4-(2-(6-(trifluoromethyl)imidazo[1,2-a]pyridin-3-yl)pyrimidin-4-yl)piperazin-1-yl)-2-hydroxyethan-1-one]
IC50 [1]: > 5000 nM | IC50 (GCN2 kinase): 10 to 100 nM

CS(=O)(=O)NC[C@@H]1CN(c2ccnc(-c3cnc4ccc(Cl)cn34)n2)CCO1 [I-19, N-[[(2S)-4-[2-(6-Chloroimidazo[1,2-a]pyridin-3-yl)pyrimidin-4-yl]morpholin-2-yl]methyl]methanesulfonamide]
IC50 [1]: 500 to 5000 nM | Ki (GCN2 kinase): 10 to 100 nM

CS(=O)(=O)NC1CC(C(F)(F)F)CN(c2ccnc(-c3cnc4ccc(C(F)F)cn34)n2)C1 (centres unmarked) [I-531, N-(1-(2-(6-(difluoromethyl)imidazo[1,2-a]pyridin-3-yl)pyrimidin-4-yl)-5-(trifluoromethyl)piperidin-3-yl)methanesulfonamide]
IC50 [1]: < 500 nM | IC50 (GCN2 kinase): 10 to 100 nM

C[C@@H]1CN(c2ccnc(-c3cnc4ccc(C(F)(F)F)cn34)n2)C[C@H](C)N1C(=O)CC1CCOCC1 [I-464, 1-(cis-2,6-dimethyl-4-(2-(6-(trifluoromethyl)imidazo[1,2-a]pyridin-3-yl)pyrimidin-4-yl)piperazin-1-yl)-2-(tetrahydro-2H-pyran-4-yl)ethan-1-one]
IC50 [1]: 500 to 5000 nM | IC50 (GCN2 kinase): 100 to 1000 nM

Clc1ccc2ncc(-c3nccc(N4CCCC(c5cnoc5)C4)n3)n2c1 (centres unmarked) [I-65, 6-Chloro-3-[4-(3-isoxazol-4-yl-piperidin-1-yl)-pyrimidin-2-yl]-imidazo[1,2-a]pyridine]
IC50 [1]: 500 to 5000 nM | Ki (GCN2 kinase): 10 to 100 nM

C[C@@H]1CN(c2nccc(-c3cnc4ccc(C(F)(F)F)cn34)n2)[C@H](C)C(c2cn[nH]c2)N1 (stereo partly drawn) [I-171, 3-(2-((2R,5R)-2,5-dimethyl-3-(1H-pyrazol-4-yl)piperazin-1-yl)pyrimidin-4-yl)-6-(trifluoromethyl)imidazo[1,2-a]pyridine]
IC50 [1]: < 500 nM | IC50 (GCN2 kinase): 10 to 100 nM

Fc1cc2ncc(-c3nccc(N4CCCC(c5cn[nH]c5)C4)n3)n2cc1Br (centres unmarked) [I-326, 3-(4-(3-(1H-pyrazol-4-yl)piperidin-1-yl)pyrimidin-2-yl)-6-bromo-7-fluoroimidazo[1,2-a]pyridine]
IC50 [1]: < 500 nM | IC50 (GCN2 kinase): < 10 nM

NC(=O)[C@@H]1CN(c2ccnc(-c3cnc4ccc(C(F)(F)F)cn34)n2)CCN1C1CC1 [I-324, (S)-1-cyclopropyl-4-(2-(6-(trifluoromethyl)imidazzo[1,2-a]pyridin-3-yl)pyrimidin-4-yl)piperazine-2-carboxamide]
IC50 [1]: > 5000 nM | IC50 (GCN2 kinase): 100 to 1000 nM

CC1CN(c2ccnc(-c3cnc4ccc(C(F)(F)F)cn34)n2)CC(C)N1CC#N (centres unmarked) [I-393, 2-(2,6-dimethyl-4-(2-(6-(trifluoromethyl)imidazo[1,2-a]pyridin-3-yl)pyrimidin-4-yl)piperazin-1-yl)acetonitrile]
IC50 [1]: 500 to 5000 nM | IC50 (GCN2 kinase): 100 to 1000 nM

CC(NS(C)(=O)=O)C1CN(c2ccnc(-c3cnc4ccc(C(F)(F)F)cn34)n2)CCO1 (centres unmarked) [I-327, N-(1-(4-(2-(6-(trifluoromethyl)imidazo[1,2-a]pyridin-3-yl)pyrimidin-4-yl)morpholin-2-yl)ethyl)methanesulfonamide]
IC50 [1]: 500 to 5000 nM | IC50 (GCN2 kinase): 10 to 100 nM

Cn1cnc(C(=O)N2CCN(c3ccnc(-c4cnc5ccc(C(F)(F)F)cn45)n3)CC2c2cn[nH]c2)c1 (centres unmarked) [I-446, (2-(1H-pyrazol-4-yl)-4-(2-(6-(trifluoromethyl)imidazo[1,2-a]pyridin-3-yl)pyrimidin-4-yl)piperazin-1-yl)(1-methyl-1H-imidazol-4-yl)methanone]
IC50 [1]: 500 to 5000 nM | IC50 (GCN2 kinase): 10 to 100 nM

C[C@@H]1C[C@H](N=S(C)(C)=O)CN(c2ccnc(-c3cnc4ccc(OC(F)(F)F)cn34)n2)C1 [I-290, dimethyl(((3 S,5R)-5-methyl-1-(2-(6-(trifluoromethoxy)imidazo[1,2-a]pyridin-3-yl)pyrimidin-4-yl)piperidin-3-yl)imino)-λ6-sulfanone]
IC50 [1]: 500 to 5000 nM | IC50 (GCN2 kinase): 10 to 100 nM

FC(F)(F)c1ccc2ncc(-c3nccc(N4CCN(C[C@H]5CC56CCOCC6)[C@@H](c5cn[nH]c5)C4)n3)n2c1 [I-521, 3-(4-((S)-4-(((S)-6-oxaspiro[2.5]octan-1-yl)methyl)-3-(1H-pyrazol-4-yl)piperazin-1-yl)pyrimidin-2-yl)-6-(trifluoromethyl)imidazo[1,2-a]pyridine]
IC50 [1]: < 500 nM | IC50 (GCN2 kinase): < 10 nM

C[C@@H]1CN(c2ccnc(-c3cnc4ccc(Cl)cn34)n2)C[C@@H](C(N)=O)O1 [I-177, (2S,6R)-4-(2-(6-chloroimidazo[1,2-a]pyridin-3-yl)pyrimidin-4-yl)-6-methylmorpholine-2-carboxamide]
IC50 [1]: < 500 nM | IC50 (GCN2 kinase): 10 to 100 nM

Source: patent US10793563B2, “GCN2 inhibitors and uses thereof” (Merck Patent GmbH, priority 2018, dated 2020)
